The values below come from patent publication US20130252935A1, “Monobactams” (PFIZER INC., priority 2010, published 2013).

≈ marks a conversion by molar mass, not a printed value.

Holding throughout (format): cell-based
Assay [1] concerns Pseudomonas aeruginosa UC-12120. The assay is described as follows: minimum inhibitory concentration (MIC) testing according to CLSI guidelines, Pseudomonas aeruginosa. Conditions: UC-12120, wild-type, labeled as 1091-05, overnight incubation, lower of duplicate values; for MIC: Pseudomonas aeruginosa, UC12120, read-out: AB-MBT: Pseudomonas aeruginosa 1091-05: MIC (MstRcn). The procedure, abridged:
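Broth dilution MIC per CLSI guidelines against wild-type P. aeruginosa UC-12120 (1091-05), using 2-fold drug dilutions and overnight incubation with visual reading of lowest growth-inhibiting concentration. Tested in duplicate; lower value reported when within 2-fold, with control organisms and reference compounds for quality control.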

Assay [2] concerns Klebsiella pneumoniae 1000-02. Nature of the assay: minimum inhibitory concentration (MIC) testing according to CLSI guidelines, Klebsiella pneumoniae. The following applies: ciprofloxacin-resistant, ESBL-expressing clinical isolate 1000-02, overnight incubation, lower of duplicate values; for MIC: Klebsiella pneumoniae, read-out: AB-MBT: Klebsiella pneumoniae 1000-02: MIC (MstRcnt). The procedure, abridged: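 MIC by CLSI broth dilution with 2-fold concentration steps and overnight incubation; lowest concentration visibly inhibiting growth versus drug-free control. Ciprofloxacin-resistant, ESBL-expressing clinical isolate 1000-02. Run in duplicate, lower value reported when within 2-fold, with QC organisms and reference compounds per run.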

Assay [3] has as its system Acinetobacter baumannii/haemolyticus AB-3167. The assay is described as follows: minimum inhibitory concentration (MIC) testing according to CLSI guidelines, Acinetobacter. The following applies: multidrug-resistant clinical isolate AB-3167, overnight incubation, lower of duplicate values; for MIC: Acinetobacter baumannii, read-out: AB-MBT: Acinetobacter baumanii AB-3167: MIC (MstRcnt). The procedure, abridged:
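Broth dilution MIC per CLSI M7-A8/M100-S20 against multidrug-resistant clinical isolate AB-3167, using 2-fold drug dilutions and overnight incubation; MIC is the lowest concentration without visible growth. Duplicates within 2-fold reported as the lower value, with control strains and reference compounds in range.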

On to `CC(C)(O/N=C(\C(=O)N[C@@H]1C(=O)N(S(=O)(=O)O)[C@@H]1CNC(=O)c1cnc(-c2cc(=O)c(O)c[nH]2)nc1)c1csc(N)n1)C(=O)O` [Example 24, 2-({[(1Z)-1-(2-amino-1,3-thiazol-4-yl)-2-({(2R,3S)-2-[({[2-(5-hydroxy-4-oxo-1,4-dihydropyridin-2-yl)pyrimidin-5-yl]carbonyl}amino)methyl]-4-oxo-1-sulfoazetidin-3-yl}amino)-2-oxoethylidene]amino}oxy)-2-methylpropanoic acid], for which the MIC in assay [1] came out at 1 µg/mL (≈ 1.5 µM); in assay [2], 16 µg/mL (≈ 24 µM); in assay [3], 2 µg/mL (≈ 3 µM).

As to `Nc1nc(/C(=N/OC2(C(=O)O)CCC2)C(=O)N[C@@H]2C(=O)N(S(=O)(=O)O)[C@@H]2CNC(=O)c2cccc(C(=O)NCc3cc(=O)c(O)cn3O)c2)cs1` [Example 64, 1-({[(1Z)-1-(2-amino-1,3-thiazol-4-yl)-2-{[(2R,3S)-2-{[(3-{[(1,5-dihydroxy-4-oxo-1,4-dihydropyridin-2-yl)methyl]carbamoyl}benzoyl)amino]methyl}-4-oxo-1-sulfoazetidin-3-yl]amino}-2-oxoethylidene]amino}oxy)cyclobutanecarboxylic acid], the MIC in assay [1] came out at 1 µg/mL (≈ 1.34 µM); in assay [2] it was 0.25 µg/mL (≈ 0.334 µM); in assay [3], 0.5 µg/mL (≈ 0.668 µM).

Turning to `Nc1nc(/C(=N/OC2(C(=O)O)CCC2)C(=O)N[C@@H]2C(=O)N(S(=O)(=O)O)[C@@H]2CNC(=O)c2ccc(CNC(=O)c3cc(=O)c(O)cn3O)cc2)cs1` [Example 62, 1-({[(1Z)-1-(2-amino-1,3-thiazol-4-yl)-2-{[(2R,3S)-2-({[4-({[(1,5-dihydroxy-4-oxo-1,4-dihydropyridin-2-yl)carbonyl]amino}methyl)benzoyl]amino}methyl)-4-oxo-1-sulfoazetidin-3-yl]amino}-2-oxoethylidene]amino}oxy)cyclobutanecarboxylic acid], the MIC in assay [1] came out at 2 µg/mL (≈ 2.67 µM); in assay [2], 1 µg/mL (≈ 1.34 µM); in assay [3], 0.5 µg/mL (≈ 0.668 µM).

For the molecule `CC(C)(O/N=C(\C(=O)N[C@@H]1C(=O)N(S(=O)(=O)[O-])[C@@H]1CNC(=O)OCc1cc(=O)c(O)cn1O)c1csc(N)n1)C(=O)[O-].[Na+].[Na+]` [Example 5, disodium 2-({[(1Z)-1-(2-amino-1,3-thiazol-4-yl)-2-({(2R,3S)-2-[({[(1,5-dihydroxy-4-oxo-1,4-dihydropyridin-2-yl)methoxy]carbonyl}amino)methyl]-4-oxo-1-sulfonatoazetidin-3-yl}amino)-2-oxoethylidene]amino}oxy)-2-methylpropanoate], the MIC turned out to be 0.125 µg/mL in assay [1], 4 µg/mL in assay [2] and 1 µg/mL in assay [3].

As for `CC(C)(O/N=C(\C(=O)N[C@@H]1C(=O)N(S(=O)(=O)O)[C@@H]1CNC(=O)Cc1cccc(NC(=O)c2cc(=O)c(O)cn2O)c1)c1csc(N)n1)C(=O)O` [Example 56, 2-({[(1Z)-1-(2-amino-1,3-thiazol-4-yl)-2-{[(2R,3S)-2-({[(3-{[(1,5-dihydroxy-4-oxo-1,4-dihydropyridin-2-yl)carbonyl]amino}phenyl)acetyl]amino}methyl)-4-oxo-1-sulfoazetidin-3-yl]amino}-2-oxoethylidene]amino}oxy)-2-methylpropanoic acid], the MIC in assay [1] turned out to be 0.5 µg/mL (≈ 0.679 µM); in assay [2] it was 1 µg/mL (≈ 1.36 µM); in assay [3], 1 µg/mL (≈ 1.36 µM).

For the molecule `Nc1nc(/C(=N/OC2(C(=O)O)CCC2)C(=O)N[C@@H]2C(=O)N(S(=O)(=O)O)[C@@H]2CNC(=O)c2ccc(CNC(=O)c3cc(O)c(O)cn3)cc2)cs1` [Example 61, 1-({[(1Z)-1-(2-amino-1,3-thiazol-4-yl)-2-{[(2R,3S)-2-({[4-({[(4,5-dihydroxypyridin-2-yl)carbonyl]amino}methyl)benzoyl]amino}methyl)-4-oxo-1-sulfoazetidin-3-yl]amino}-2-oxoethylidene]amino}oxy)cyclobutanecarboxylic acid], the MIC came to 32 µg/mL (≈ 43.7 µM) in assay [1], 2 µg/mL (≈ 2.73 µM) in assay [2] and 1 µg/mL (≈ 1.36 µM) in assay [3].

Consider `CC(C)(O/N=C(\C(=O)N[C@@H]1C(=O)N(S(=O)(=O)O)[C@@H]1CNC(=O)c1ccc(CNC(=O)c2cc(O)c(O)cn2)cc1)c1csc(N)n1)C(=O)O` [Example 51, 2-({[(1Z)-1-(2-amino-1,3-thiazol-4-yl)-2-{[(2R,3S)-2-({[4-({[(4,5-dihydroxypyridin-2-yl)carbonyl]amino}methyl)benzoyl]amino}methyl)-4-oxo-1-sulfoazetidin-3-yl]amino}-2-oxoethylidene]amino}oxy)-2-methylpropanoic acid], for which the results for the minimal inhibitory concentration (MIC) in assay [1], in assay [2] and in assay [3] were 0.125 µg/mL (≈ 0.173 µM), 2 µg/mL (≈ 2.78 µM) and 1 µg/mL (≈ 1.39 µM), respectively.

`CC(C)(O/N=C(\C(=O)N[C@@H]1C(=O)N(S(=O)(=O)O)[C@@H]1CNC(=O)c1ccc(C(=O)NCc2cc(=O)c(O)cn2O)cc1)c1csc(N)n1)C(=O)O` [Example 43, 2-({[(1Z)-1-(2-amino-1,3-thiazol-4-yl)-2-{[(2R,3S)-2-{[(4-{[(1,5-dihydroxy-4-oxo-1,4-dihydropyridin-2-yl)methyl]carbamoyl}benzoyl)amino]methyl}-4-oxo-1-sulfoazetidin-3-yl]amino}-2-oxoethylidene]amino}oxy)-2-methylpropanoic acid]: the MIC was 0.125 µg/mL (≈ 0.17 µM) in assay [1], 0.5 µg/mL (≈ 0.679 µM) in assay [2] and 0.25 µg/mL (≈ 0.339 µM) in assay [3].

Turning to `CC(C)(O/N=C(\C(=O)N[C@@H]1C(=O)N(S(=O)(=O)O)[C@@H]1CNC(=O)c1csc(-c2cc(=O)c(O)c[nH]2)n1)c1csc(N)n1)C(=O)O` [Example 20, 2-({[(1Z)-1-(2-amino-1,3-thiazol-4-yl)-2-({(2R,3S)-2-[({[2-(5-hydroxy-4-oxo-1,4-dihydropyridin-2-yl)-1,3-thiazol-4-yl]carbonyl}amino)methyl]-4-oxo-1-sulfoazetidin-3-yl}amino)-2-oxoethylidene]amino}oxy)-2-methylpropanoic acid], the figures for the MIC in assay [1], in assay [2] and in assay [3] were 1 µg/mL (≈ 1.49 µM), 0.5 µg/mL (≈ 0.746 µM) and 1 µg/mL (≈ 1.49 µM), respectively.

In the case of `Nc1nc(/C(=N/OC2(C(=O)O)CCC2)C(=O)N[C@@H]2C(=O)N(S(=O)(=O)O)[C@@H]2CNC(=O)C(=O)NCc2cc(=O)c(O)cn2O)cs1` [Example 65, 1-({[(1Z)-1-(2-amino-1,3-thiazol-4-yl)-2-{[(2R,3S)-2-({[{[(1,5-dihydroxy-4-oxo-1,4-dihydropyridin-2-yl)methyl]amino}(oxo)acetyl]amino}methyl)-4-oxo-1-sulfoazetidin-3-yl]amino}-2-oxoethylidene]amino}oxy)cyclobutanecarboxylic acid], the MIC is 0.06 µg/mL (≈ 0.0892 µM) in assay [1], 0.25 µg/mL (≈ 0.372 µM) in assay [2] and 0.125 µg/mL (≈ 0.186 µM) in assay [3].

With `CC(C)(O/N=C(\C(=O)N[C@@H]1C(=O)N(S(=O)(=O)O)[C@@H]1CNC(=O)c1ccc(S(=O)(=O)NCc2cc(=O)c(O)cn2O)cc1)c1csc(N)n1)C(=O)O` [Example 39], the “AB-MBT: Pseudomonas aeruginosa 1091-05: MIC (MstRcn)” value in assay [1] is 0.250 µg/mL. Also, the “AB-MBT: Klebsiella pneumoniae 1000-02: MIC (MstRcnt)” value in assay [2] worked out at 1.00 µg/mL. Also, the “AB-MBT: Acinetobacter baumanii AB-3167: MIC (MstRcnt)” value in assay [3] amounted to 0.500 µg/mL.

Turning to `Nc1nc(/C(=N/OCC(=O)O)C(=O)N[C@@H]2C(=O)N(S(=O)(=O)O)[C@@H]2CNC(=O)NCc2cc(=O)c(O)cn2O)cs1` [Example 69, ({[(1Z)-1-(2-amino-1,3-thiazol-4-yl)-2-({(2R,3S)-2-[({[(1,5-dihydroxy-4-oxo-1,4-dihydropyridin-2-yl)methyl]carbamoyl}amino)methyl]-4-oxo-1-sulfoazetidin-3-yl}amino)-2-oxoethylidene]amino}oxy)acetic acid], the values for the MIC in assay [1], in assay [2] and in assay [3] were 0.25 µg/mL (≈ 0.414 µM), 1 µg/mL (≈ 1.65 µM) and 0.25 µg/mL (≈ 0.414 µM), respectively.

`Nc1nc(/C(=N/OC2(C(=O)O)CCCCC2)C(=O)N[C@@H]2C(=O)N(S(=O)(=O)O)[C@@H]2CNC(=O)NCc2cc(=O)c(O)cn2O)cs1` [Example 28, 1-({[(1Z)-1-(2-amino-1,3-thiazol-4-yl)-2-({(2R,3S)-2-[({[(1,5-dihydroxy-4-oxo-1,4-dihydropyridin-2-yl)methyl]carbamoyl}amino)methyl]-4-oxo-1-sulfoazetidin-3-yl}amino)-2-oxoethylidene]amino}oxy)cyclohexanecarboxylic acid]: the MIC came out at 1 µg/mL (≈ 1.49 µM) in assay [1], 0.5 µg/mL (≈ 0.743 µM) in assay [2] and 1 µg/mL (≈ 1.49 µM) in assay [3].

For `CC(C)(O/N=C(\C(=O)N[C@@H]1C(=O)N(S(=O)(=O)O)[C@@H]1CNC(=O)c1ccc(NC(=O)c2cc(=O)c(O)cn2O)cc1)c1csc(N)n1)C(=O)O` [Example 52, 2-({[(1Z)-1-(2-amino-1,3-thiazol-4-yl)-2-{[(2R,3S)-2-{[(4-{[(1,5-dihydroxy-4-oxo-1,4-dihydropyridin-2-yl)carbonyl]amino}benzoyl)amino]methyl}-4-oxo-1-sulfoazetidin-3-yl]amino}-2-oxoethylidene]amino}oxy)-2-methylpropanoic acid], the MIC in assay [1] came to 0.5 µg/mL (≈ 0.692 µM); in assay [2], 1 µg/mL (≈ 1.38 µM); in assay [3], 0.5 µg/mL (≈ 0.692 µM).

A word on the MIC: it is the lowest concentration that inhibits growth of the organism.
